Tests used:
[1] = log P[a] by HPLC on reversed-phase column (C18), LC-UV in the acidic range; format: physicochemical; details: 0.9 ml/l formic acid in water and 1.0 ml/l formic acid in acetonitrile, gradient 10% to 95% acetonitrile, EEC Directive 79/831 Annex V.A8
Description: (§1) The log values were determined according to EEC Directive 79/831 Annex V.A8 by HPLC (high-performance liquid chromatography) on a reversed-phase column (C18) using the following methods: The log P[a] value is determined by LC-UV measurement in the acidic range using 0.9 mill formic acid in water and 1.0 ml/l formic acid in acetonitrile as mobile phases (linear gradient from 10% acetonitrile to 95% acetonitrile). Calibration was carried out using a homologous series of straight-chain alkan-2-ones (having 3 to 16 carbon atoms) with known log values. The values between successive alkanones are determined by linear regression.

[2] = log P[n] by HPLC on reversed-phase column (C18), LC-UV in the neutral range; format: physicochemical; details: 79 mg/l ammonium carbonate in water and acetonitrile, gradient 10% to 95% acetonitrile, EEC Directive 79/831 Annex V.A8
Description: as §1, with “P[n]” for “P[a]”, “neutral” for “acidic”, “79 mg/l ammonium carbonate” for “0.9 mill formic acid”, “and” for “and 1.0 ml/l formic acid in”

chromatographic logP [1] | chromatographic logP [2] | Compound
3.14 | 3.01 | CCSc1c(-c2nc3cc(C(F)(F)F)nnc3n2C)nc(Br)n1C [Example 1, 6-[2-bromo-5-(ethylsulfanyl)-1-methyl-1H-imidazol-4-yl]-7-methyl-3-(trifluoromethyl)-7H-imidazo[4,5-]pyridazine]
3.8 | 3.66 | CCSc1c(-c2nc3cc(C(F)(F)C(F)(F)F)nnc3n2C)nc(Br)n1C [Example 2, 6-[2-bromo-5-(ethylsulfanyl)-1-methyl-1H-imidazol-4-yl]-7-methyl-3-(pentafluoroethyl)-7H-imidazo[4,5-c]pyridazine]
2.8 | 2.76 | CCS(=O)(=O)c1c(-c2nc3cc(C(F)(F)C(F)(F)F)nnc3n2C)nc(Br)n1C [Example 3, 6-[2-bromo-5-(ethylsulfonyl)-1-methyl-1H-imidazol-4-yl]-7-methyl-3-(pentafluoroethyl)-7H-imidazo[4,5-c]pyridazine]
3.63 | 3.51 | CCSc1c(-c2nc3cc(C(F)(F)C(F)(F)F)ncc3n2C)nc(Br)n1C [Example 4, 2-[2-bromo-5-(ethylsulfanyl)-1-methyl-1H-imidazol-4-yl]-3-methyl-6-(pentafluoroethyl)-3H-imidazo[4,5-c]pyridine]
4.13 | 4.01 | CCSc1c(-c2nc3cc(C(F)(F)C(F)(F)F)nnc3n2C)nc(-c2ccc(Cl)nn2)n1C [Example 5, 6-[2-(6-chloropyridazin-3-yl)-5-(ethylsulfanyl)-1-methyl-1H-imidazol-4-yl]-7-methyl-3-(pentafluoroethyl)-7H-imidazo[4,5-c]pyridazine]
4.32 | 4.2 | CCSc1c(-c2nc3cc(C(F)(F)C(F)(F)F)nnc3n2C)nc(-c2ccc(C#N)cn2)n1C [Example 6, 6-{5-(ethylsulfanyl)-1-methyl-4-[7-methyl-3-(pentafluoroethyl)-7H-imidazo[4,5-c]pyridazin-6-yl]-1H-imidazol-2-yl}nicotinonitrile]
